Assays:
Type in all cases: cell-based
human hepatocyte [1] = assay: Metabolic ability of ammonia in cultured human hepatocyte; settings: culture without insert; for ammonia metabolic rate: ammonium sulfate 0.56 mM, after 24 hours
Source text: (§1) Donor liver judged to be unsuitable for transplantation in the United States was obtained from National Disease Research Interchange via HUMAN & ANIMAL BRIDGING […] ORGANIZATION laboratory (Ichikawa city, Chiba prefecture, responsible person) in the form of liver block (130 g) which was then separated into hepatocyte in the same manner as for the above-described isolation of porcine hepatocyte in Example 1.

human pancreatic islet = assay: Morphological study of cultured human pancreatic islet by electron microscope (morphological criteria, points); settings: human pancreatic islets, day 5 of culture
Method: (§2) As the inspection method of cultured pancreatic islets, a method is mentioned in which the following 4 items as morphological criteria are evaluated at 5 levels (1 to 5 points) (see, literature: Matsumoto S, Qualley S A, Goel S, et al., Effect of the two-layer (University of Wisconsin solution-Perfluorochemical plus 02) method of pancreas preservation on human islet isolation as assessed by Edmonton isolation protocol. Transplantation 2002; 74: 1414).
(§3) Evaluation is performed at 5 levels of “flat: 1 point”, “approximately flat: 2 points”, “irregularly spherical: 3 points”, “approximately spherical: 4 points”, and “spherical: 5 points”.
(§4) Evaluation is performed at 5 levels of “irregular: 1 point”, “approximately irregular: 2 points”, “somewhat well-rounded: 3 points”, “approximately well-rounded: 4 points”, and “well-rounded: 5 points”. Among these, “well-rounded: 5 points” is most preferable.
(§5) Evaluation is performed at 5 levels of “fragmented: 1 point”, “approximately fragmented: 2 points”, “somewhat solid/compact: 3 points”, “approximately solid/compact: 4 points”, and “solid/compact: 5 points”. Among these, “solid/compact: 5 points” is most preferable.
Evaluation is performed at 5 levels of “smaller than 100 μm for individual cultured pancreatic islets (all <100 μm): 1 point”, “100 to 150 μm for individual cultured pancreatic islets: 2 points”, “[…] for individual cultured pancreatic islets: 3 points”, “150 to 200 μm for individual cultured pancreatic islets: 4 points”, and “larger than 200 μm for at least 10% of individual cultured pancreatic islets (>10%>200 μm): 5 points”. Among these, “larger than 200 μm for at least 10% of individual cultured pancreatic islets: 5 points” is most preferable. […]

porcine pancreatic islet = assay: Morphological study of cultured porcine pancreatic islet by electron microscope (morphological criteria, points); settings: porcine pancreatic islets, day 5 of culture
Method: as §2, §3, §4, §5
Evaluation is performed at 5 levels of “smaller than 100 μm for individual cultured pancreatic islets (all <100 μm): 1 point”, “100 to 150 μm for individual cultured pancreatic islets: 2 points”, “[…] for individual cultured pancreatic islets: 3 points”, “150 to 200 μm for individual cultured pancreatic islets: 4 points”, and “larger than 200 μm for at least 10% of individual cultured pancreatic islets (>10%>200 μm): 5 points”. Among these, “larger than 200 μm for at least 10% of individual cultured pancreatic islets: 5 points” is most preferable.
In the above-described criteria, the shape “flat” means that when a pancreatic islet is considered to be elliptic sphere, the ratio of major axis/minor axis is at least 10, the shape “approximately flat” means that the above-described ratio of major axis/minor axis is at least 5 and less than 10, the shape “irregularly spherical” means that the above-described ratio of major axis/minor axis is at least 2 and less than 5, the shape “approximately spherical” means that the above-described ratio of major axis/minor axis is at least 1.2 and less than 2, and the shape “spherical” means that the above-described ratio of major axis/minor axis is less than 1.2. […]

porcine hepatocyte = assay: Metabolic ability of ammonia in cultured porcine hepatocyte; set-up: ammonia metabolic rate: unit not given beside the values; settings: for ammonia metabolic rate: ammonium sulfate 0.56 mM, after 24 hours
human hepatocyte [2] = assay: Morphological study of cultured human hepatocyte by phase-contrast and electron microscope; settings: culture without insert, phase-contrast microscope days 1 and 5, electron microscope day 5
Method: as §1
Recently, it has been known that when three-dimensional culture of cells is performed on scaffold, cell functions are improved and maintained. […] In contrast, human hepatocytes cultured with collagen type I (monolayer) (group B) adhered in flat form to the surface of the culture flask (see, Photograph 1 in FIG. 7(a)). […] As a result, it was clarified that it is more suitable for culture of human hepatocyte to use PuraMatrix of SEQ ID NO:1.

[3] = porcine hepatocyte, culture without insert, days 1, 7 and 14

## CC(=O)N[C@@H](CCCNC(=N)N)C(=O)N[C@@H](C)C(=O)N[C@@H](CC(=O)O)C(=O)N[C@@H](C)C(=O)N[C@@H](CCCNC(=N)N)C(=O)N[C@@H](C)C(=O)N[C@@H](CC(=O)O)C(=O)N[C@@H](C)C(=O)N[C@@H](CCCNC(=N)N)C(=O)N[C@@H](C)C(=O)N[C@@H](CC(=O)O)C(=O)N[C@@H](C)C(=O)N[C@@H](CCCNC(=N)N)C(=O)N[C@@H](C)C(=O)N[C@@H](CC(=O)O)C(=O)N[C@@H](C)C(N)=O [Group A, Ac-(RADA)4-CONH2]
Human hepatocyte [1]; Table 4(a), day 1 of culture
  ammonia metabolic rate: 45.0
Human hepatocyte [1]; Table 4(a), day 3 of culture
  ammonia metabolic rate: 32.8
Human hepatocyte [1]; Table 4(a), day 5 of culture
  ammonia metabolic rate: 20.4
Human hepatocyte [1]; Table 4(b), day 1 of culture
  ammonia metabolic rate: 45.0
Human hepatocyte [1]; Table 4(b), day 3 of culture
  ammonia metabolic rate: 32.8
Human hepatocyte [1]; Table 4(b), day 5 of culture
  ammonia metabolic rate: 20.4
Human hepatocyte [1]; days 1, 3 and 5
  ammonia metabolic rate as compared with collagen type I (monolayer) (group B): significantly better
  ammonia metabolic rate as compared with collagen type I (monolayer) (group B) and Matrigel (group C): significantly better
Human pancreatic islet
  pancreatic islet morphology: 1. shape: 5 (spherical: 5 points)
  pancreatic islet morphology: 3. integrity: 5 (solid/compact: 5 points)
  pancreatic islet morphology: sum of the evaluation values: 16 points
Porcine pancreatic islet
  pancreatic islet morphology: 1. shape: 5 (spherical: 5 points)
  pancreatic islet morphology: 2. border shape: 5 (well-rounded: 5 points)
  pancreatic islet morphology: 3. integrity: 5 (solid/compact: 5 points)
  pancreatic islet morphology: sum of the evaluation values: 18 points
Porcine hepatocyte; Table 1(a), culture without insert, day 1 of culture
  ammonia metabolic rate: 58.6
Porcine hepatocyte; Table 1(a), culture without insert, day 7 of culture
  ammonia metabolic rate: 43.8
Porcine hepatocyte; Table 1(a), culture without insert, day 14 of culture
  ammonia metabolic rate: 26.4
Porcine hepatocyte; Table 1(c), culture with insert, day 1 of culture
  ammonia metabolic rate: 61.6
Porcine hepatocyte; Table 1(c), culture with insert, day 7 of culture
  ammonia metabolic rate: 49.6
Porcine hepatocyte; Table 1(c), culture with insert, day 14 of culture
  ammonia metabolic rate: 38.2
Porcine hepatocyte; Table 1(c), culture with insert, day 21 of culture
  ammonia metabolic rate: 36.1
Porcine hepatocyte; Table 1b, culture without insert, day 1 of culture
  ammonia metabolic rate: 59.8
Porcine hepatocyte; Table 1b, culture without insert, day 7 of culture
  ammonia metabolic rate: 44.3
Porcine hepatocyte; Table 1b, culture without insert, day 14 of culture
  ammonia metabolic rate: 33.3
Porcine hepatocyte; porcine hepatocyte, culture with insert, days 1, 7, 14 and 21
  ammonia metabolic rate as compared with collagen type I (monolayer) (group B), Matrigel (group C) and collagen sandwich (group D): significantly better
Porcine hepatocyte; [3]
  ammonia metabolic rate as compared with collagen type I (monolayer) (group B): significantly better
  ammonia metabolic rate as compared with collagen type I (monolayer) (group B) and Matrigel (group C): significantly better
Human hepatocyte [2]
  formation of three-dimensional spheroid by hepatocytes: formation of three-dimensional spheroid by hepatocytes was confirmed
